# Source: patent US20260248809A1, “ESTRADIOL PRODRUGS AND METHODS OF USE THEREOF” (UNIVERSITY OF MARYLAND, BALTIMORE, priority 2022, published 2026)
# “Also recorded” adds a separate entry of the source.
# Legend:
# [1] = tested on: optically-induced postsynaptic currents (oPSC) in the NAc; assay: Whole-cell patch clamp of optically-induced postsynaptic currents in NAc slices; parameters: species or system mouse; settings: bath applied NBQX and APV together
# Experimental: Mice (n=3 males) that were previously injected with ChR2 in the BLA were deeply anesthetized with isoflurane before decapitation and brain extraction. Coronal 250 μm thick sections were collected in ice cold 95% oxygen, 5% carbon dioxide-bubbled modified artificial cerebrospinal fluid (aCSF, 194 mM sucrose, 30 mM NaCl, 4.5 mM KCl, 1 mM MgCl2, 26 mM NaHCO3, 1.2 mM NaH2PO4, and 10 mM D-glucose) before incubating at 32° C. for 30 min in aCSF (124 mM NaCl, 4.5 mM KCl, 2 mM CaCl2), 1 mM MgCl2, 26 mM NaHCO3, 1.2 mM NaH2PO4, and 10 mM D-glucose). Slices were then stored at room temperature until recording.
# Slices were hemisected, placed into a recording chamber, and perfused with temperature controlled aCSF (29-31° C.). NAc medium spiny neurons (MSNs) were visualized using infrared differential interference contrast light microscopy, Q-capture camera, and associated Pro 7 software. […] Optically evoked post synaptic currents (oPSC) were elicited by an optical fiber placed in the recording chamber that delivered 4 ms pulses of light (473 nm) every 20s for a total recording duration of 15 min. oPSCs were recorded using borosilicate glass pipettes (2-4 MΩ resistance) filled with Cesium Methanesulfonate internal solution (135 mM cesium methanesulfonate, 3 mM NaCl, 10 mM HEPES, 0.6 mM EGTA, 4 mM MgATP, 0.3 mM NaGTP, 5 mM QX-314C1, pH 7.2, 310 mOsm). […]
# [2] = Body, testis and seminal vesicle weights after hormonal treatments; assay type: in vivo, mouse
# Experimental: (§1) For the chronic administration paradigms, silastic tubes (1.02 mm inner diameter×2.16 mm outer diameter) were filled with testosterone (10 mm) or 17β-Estradiol (E2; 1,3 and 10 mm; Sigma-Aldrich, St. Louis, MO, USA). Silastic implants were primed in 0.9% saline at 37° C. overnight prior to their subcutaneous use. Letrozole (1 mg/kg/day; Sigma-Aldrich, St. Louis, MO, USA) was dissolved in propylene glycol (MP Biomedicals, Santa Ana, CA, USA) and administered through ALZET minipumps (Model 1002, 0.25 μl/hour, 14 days; Cupertino, CA, USA). DHED (synthesized using previously described methods) was dissolved in 0.9% saline and administered through ALZET minipumps (Model 1002, 0.25 μl/hour, 14 days; Cupertino, CA, USA) at a dose of […]. Flutamide was administered through 1.5 mg slow-release subcutaneous pellets (Innovative Research of America, Sarasota, FL, USA). For acute administration, 17β-Estradiol (E2; 10 and […]) was dissolved in sesame oil (4 ml/kg, s.c.; Sigma-Aldrich, St. Louis, MO, USA).
# Subcutaneous implantations were performed during the same time as the orchiectomies. The surgical area was thoroughly cleaned with Betadine solution (10% povidone-iodine surgical scrub) followed by 70% ethanol. A small, approximately 1-cm incision was made between the scapulae using a pair of small sterile surgical scissors. Hemostats were then inserted and spread laterally to the incision to create a cavity in the subcutaneous space in which ALZET mini-osmotic pumps or silastic implants were inserted for continuous drug/vehicle delivery. The skin was closed with suturing.
# galanin expression = settings: rat, in vivo; cited from earlier work
# [3] = tested on: estrogen or other hormone receptors; settings: cited from earlier work
# [4] = tested on: progesterone receptor (PR) expression; settings: rat, in vivo; cited from earlier work
# male mice [5] = assay: Subthreshold social defeat stress (SSDS) followed by social interaction test; assay type: in vivo, mouse
# Experimental: (§2) Subthreshold social defeat stress: Retired CD1 breeders are singly housed and used as aggressors. Experimental mice are introduced to the home cage of an aggressor for 2 min to initiate the physical attack phase. Afterward, mice are transferred and housed on the opposite side of the aggressor, in the same cage separated by a perforated Plexiglass divider for 15 mins in order to maintain sensory contact. This process is repeated 3 times over a period of ~50 min.
# (§3) Social Interaction: Mice are placed in a rectangular box (40 cm length×30 cm width×35 cm height; Stoelting, IL) divided into three compartments (two equal-sized end-chambers and a middle chamber) for five minute habituation phase (10-15 lux). After the habituation phase, two small wire cages are introduced into the two end chambers, one containing an unfamiliar, non-aggressive CD1 mouse and the other remaining empty. The amount of time mice spent sniffing each cage during the five-min test is assessed using CleverSys tracking software (CleverSys, Inc, Reston VA, USA).
# as §1
# (§4) Retired CD1 breeders were singly housed and used as aggressors. Two days prior to the start of the experiment, experimental mice were also singly housed. The stress procedure was performed using previously described methods. Briefly, experimental mice were introduced to the home cage of an aggressor for 2 min to initiate the physical attack phase. Afterward, mice were transferred and housed on the opposite side of the aggressor, in the same cage separated by a perforated Plexiglass divider for 15 mins in order to maintain sensory contact. This process was repeated 3 times over a period of ~50 min. Following the completion of the third cycle, mice were placed back in their home cages.
# (§5) Acute E2 was administered 45 min prior to the initiation of stress or 5 min after the completion of stress. For the optogenetic stimulation, ChR2 and YFP-injected mice received a 4 Hz, 5 ms pulse width, 10-15 mW 470 nm light stimulation for 45 min prior to the initiation of stress. This stimulation paradigm was shown previously to increase synaptic transmission. The optogenetic set up consisted of an LED driver paired with a fiber-coupled LED light source attached to a bifurcated optogenetic path cable (400 μm, 0.49 NA; ThorLabs, Newton NJ, USA).
# as §3, with “Social interaction was performed 24 hours following subthreshold social defeat or inescapable foot-shock stress. For the habituation phase, mice were” for “Social Interaction: Mice are”, “five minutes” for “five minute habituation phase”, “cages were” for “cages are”, “test was” for “test is”
# male mice [6] = assay: Subthreshold social defeat stress followed by female urine sniffing test (anhedonia); assay type: in vivo, mouse
# Experimental: as §2
# (§6) Female Urine Preference Test: is performed 24 hours after the social interaction test as using previously described methods. The amount of time mice spent interacting with a cotton-tipped applicator soaked in either fresh male or female mouse urine during a total of 3 minutes is analyzed by an experimenter blind to the experimental groups.
# as §1, §4, §5
# as §6, with “FUST procedure was” for “Female Urine Preference Test: is”, “and 48 hours after stress. FUST was performed” for “as”, “was” for “is”
# in vivo = settings: male, C57BL/6J, mouse
# Description: Although these findings support a critical role for E2, and not testosterone itself, as the biologically active hormone mediating stress susceptibility in hypogonadal male mice, E2 replacement therapy cannot be considered as a viable treatment in human male veteran populations due to its peripheral side effects, including gynecomastia and erectile dysfunction. However, isolating the effects of E2 to the central nervous system would provide a viable therapy. […] As a next step in advancing this treatment, the oral bioavailability of DHED was assessed, comparing oral versus intravenous delivery routes.
# Pharmacokinetic (PK) assessment of prodrugs. […] Generally, this PK study and analysis proceeds similarly to previous studies aimed at assessing the oral bioavailability of (2R,6R)-HNK. […] PK is performed using tandem liquid chromatography-mass spectrometry (LC-MS/MS) for quantification. […] Statistical significance is calculated using the unpaired t-test or Mann-Whitney U test for comparing AUC values. […] E2 levels are measured with liquid chromatography tandem mass spectrometry (LC-MS/MS) using standard methods. […] If levels of E2 are too low to be quantified via this measure, and to distinguish naturally-produced from DHED prodrug-produced E2, E2 levels can be quantitated at the femtomole level utilizing deuterium-labelled E2 standards and triple quadrupole mass spectrometry.
# rodents = settings: high doses administered orally to rodents; cited from earlier work
# C3 expression = settings: rat, in vivo; cited from earlier work
# [7] = in vivo; cited from earlier work
# [8] = Pharmacokinetic assessment of the DHED-acetate prodrug, IV and PO; assay type: in vivo, mouse
# Experimental: FIGS. 29A-29B illustrate the pharmacokinetic assessment of the DHED-acetate prodrug. The concentration levels of the DHED-acetate prodrug (FIG. 29A) and DHED (FIG. 29B) were measured in mice (n=3) after IV and PO administration of 5 mg/kg solution dose of DHED-acetate prodrug.
# Pharmacokinetic (PK) assessment of prodrugs. […] Generally, this PK study and analysis proceeds similarly to previous studies aimed at assessing the oral bioavailability of (2R,6R)-HNK. As in previous data with DHED (FIGS. 6A-6B), male C57BL/6J mice (n=6/time point) receive 200 μg of prodrug in 0.9% (20% cyclodextrin) administered either IV or PO. Plasma and brain are collected at 5 min, 15 min, 30 min, 1 h, and 4 h after administration. PK is performed using tandem liquid chromatography-mass spectrometry (LC-MS/MS) for quantification. Pharmacokinetic analysis is performed using Phoenix WinNonLin. Non-compartmental analysis is performed to determine the following parameters: C0 (Back-extrapolated concentration at time 0); Cmax (Maximum observed concentration); Tmax (time of maximum observed concentration); AUC0-t (Area under the concentration-time curve from hour 0 to the last measurable concentration, estimated by the linear trapezoidal rule). Statistical significance is calculated using the unpaired t-test or Mann-Whitney U test for comparing AUC values. Importantly, pharmacokinetic measurements observe both the level of the prodrug and free DHED moiety in the plasma. A critical comparison is measuring the DHED levels after administration of the prodrug compared to after administration of DHED itself. […] E2 levels are measured with liquid chromatography tandem mass spectrometry (LC-MS/MS) using standard methods. […] If levels of E2 are too low to be quantified via this measure, and to distinguish naturally-produced from DHED prodrug-produced E2, E2 levels can be quantitated at the femtomole level utilizing deuterium-labelled E2 standards and triple quadrupole mass spectrometry.
# [9] = chronic treatment (silastic implant or minipump), orchiectomized male mice + SSDS
# [10] = chronic treatment, gonadally intact male mice + SSDS
compound,measurement,setting,value
N[C@@H](CCCP(=O)(O)O)C(=O)O [APV],oPSCs in NAc of ERβ-cre mice with ChR2 in the BLA,[1],blocked
"C[C@]12CC[C@H]3[C@@H](CCC4=CC(=O)C=C[C@@]43O)[C@@H]1CC[C@@H]2O [DHED, 10β,17β-dihydroxyestra-1,4-dien-3-one]",body weight,[2]; chronic treatment,did not increase; also recorded: no difference
same,seminal vesicle weight,[2]; chronic treatment,did not increase; also recorded: no difference
same,relative seminal vesicle weights,"[2]; s.c. treatment, compared to vehicle (saline) control",unaffected
same,pituitary galanin expression,galanin expression,does not change
same,effects on estrogen or other hormone receptors throughout the body,[3],no effects on estrogen or other hormone receptors
same,medial preoptic area PR expression,[4],increases medial preoptic area PR expression
same,stress-induced social interaction deficits,male mice [5]; [9],reversed the social interaction and hedonic deficits
same,stress-induced anhedonia,male mice [6]; [9],reversed the social interaction and hedonic deficits
same,bioavailability,in vivo; oral bioavailability measured in brain,< 2%
same,bioavailability,in vivo; oral bioavailability measured in plasma,10%
same,efficacy in models of hot flushes,rodents,E2-like efficacy
same,uterus C3 expression,C3 expression,does not change
C[C@]12CC[C@H]3[C@@H](CCC4=CC(=O)CC[C@@]43C)[C@@H]1CC[C@@H]2OC(=O)[C@@H]1CCCN1C(=O)c1ccc(S(N)(=O)=O)cn1 [EC586],oral bioavailability of testosterone,[7],substantially enhance the oral bioavailability
"CC(=O)O[C@H]1CC[C@H]2[C@@H]3CCC4=CC(=O)C=C[C@]4(O)[C@H]3CC[C@]12C [Example 1.1, (8S,9S,10S,13S,14S,17S)-10-hydroxy-13-methyl-3-oxo-6,7,8,9,10,11,12,13,14,15,16,17-dodecahydro-3H-cyclopenta[a]phenanthren-17-yl acetate]",concentration level of the prodrug after IV administration,"[8]; mice (n=3), 5 mg/kg solution dose, IV",very rapidly metabolized
same,concentration level of the prodrug after PO administration,"[8]; mice (n=3), 5 mg/kg solution dose, PO",cannot be detected
same,conversion of the prodrug into DHED,"[8]; mice, 5 mg/kg, IV or PO",hydrolyzed into DHED
NS(=O)(=O)c1cccc2c1c([N+](=O)[O-])cc1nc(O)c(O)nc12 [NBQX],oPSCs in NAc of ERβ-cre mice with ChR2 in the BLA,[1],blocked
CCCCCCCCCC(=O)O[C@H]1CC[C@H]2[C@@H]3CCC4=CC(=O)CC[C@]4(C)[C@H]3CC[C@]12C [Testosterone-decanoate],oral bioavailability of testosterone,[7],substantially enhance the oral bioavailability
"N#Cc1ccc(C(c2ccc(C#N)cc2)n2cncn2)cc1 [letrozole, Letrozole]",body weight,[2]; chronic treatment,increased body weight
same,seminal vesicle weight,[2]; chronic treatment,increased seminal vesicle weight
same,testis weight,[2]; chronic treatment,no difference in testes weight
same,social interaction deficits following stress,male mice [5]; [10],deficits in social interaction
same,anhedonia following stress,male mice [6]; [10],induced a stress-susceptible phenotype
